Assay [1] concerns the target T1, hSEP (His6-tagged hSEP ectodomain) (Homo sapiens, UniProt Q495T6).
T1 construct: His6-tagged hSEP ectodomain; His6; purchased Innogenetics, Ghent, Belgium
T1 sequence (Q495T6 49-779 limits assumed): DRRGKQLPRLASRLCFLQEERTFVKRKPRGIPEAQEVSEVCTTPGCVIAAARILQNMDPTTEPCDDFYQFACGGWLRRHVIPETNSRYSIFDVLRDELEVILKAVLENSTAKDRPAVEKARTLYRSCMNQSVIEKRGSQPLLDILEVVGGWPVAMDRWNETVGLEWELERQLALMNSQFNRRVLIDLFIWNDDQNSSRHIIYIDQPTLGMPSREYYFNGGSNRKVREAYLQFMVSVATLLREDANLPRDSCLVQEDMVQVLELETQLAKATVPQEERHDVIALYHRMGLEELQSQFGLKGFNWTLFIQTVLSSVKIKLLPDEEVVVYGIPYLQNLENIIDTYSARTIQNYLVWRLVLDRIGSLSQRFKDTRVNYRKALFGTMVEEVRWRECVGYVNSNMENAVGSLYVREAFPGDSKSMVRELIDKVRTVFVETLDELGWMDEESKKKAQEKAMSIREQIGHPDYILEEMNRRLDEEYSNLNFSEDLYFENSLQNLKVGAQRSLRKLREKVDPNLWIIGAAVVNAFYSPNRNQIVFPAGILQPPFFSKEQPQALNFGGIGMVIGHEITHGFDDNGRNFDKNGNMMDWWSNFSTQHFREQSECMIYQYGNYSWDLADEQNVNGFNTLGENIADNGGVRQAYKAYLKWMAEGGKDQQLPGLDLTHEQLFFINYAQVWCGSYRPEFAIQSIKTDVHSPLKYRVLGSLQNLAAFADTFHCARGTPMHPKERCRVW
Kind of assay: Inhibition of enzymatic breakdown of CNP and VIP by hSEP (in vitro enzymatic assay, HPLC). It is filed as biochemical. As to conditions: 15 min preincubation, 60 min at 37° C. On the procedure:
(§1) 1. Inhibition of Enzymatic Breakdown of CNP and VIP by the Test Compounds
(§2) The inhibition of the enzymatic breakdown of CNP and VIP by the test compounds of Formula I according to the invention was measured in an enzymatic in vitro assay according to the following protocol:
(§3) • a) hSEP (sol hu)(his)6; or: His6-tagged hSEP ectodomain. • stock solution: 53 μg/ml in 20 mM HEPES pH 7.2, 5% glycerol, 0.005% Tween20, 100 mM NaCl, purity>99% • working solution: stock solution diluted with assay buffer to 5 μg/ml • Supplier: Innogenetics, Ghent, Belgium. Preparation and purification of the protein were performed as described in WO 02/094176. • b) NEP (prepared from pig kidney cortex) • stock solution: 120 μg/ml in 20 mM bisTris, purity>95% • working solution: stock solution diluted with assay buffer to 5 μg/ml • Supplier: Dr. Philippe Crine, Univ. of Montreal, Canada Substrates: • a) VIP • b) CNP (32-53) • stock solution: 100 μM in assay buffer • Supplier: Bachem, Weil am Rhein, Germany
(§4) Assay buffer: 100 mM Tris pH 7.0, 250 mM NaCl
(§5) All test compounds were dissolved in DMSO at 10 mM and further diluted with assay buffer.
(§6) 70 μl of assay buffer, 10 μl of enzyme working solution (NEP or hSEP) and 10 μl of a test compound solution were mixed in an Eppendorf vial and preincubated at 37° C. for 15 minutes. Then, 10 μl of peptide stock solution (VIP or CNP) was added and the reaction mixture was incubated at 37° C. for 60 min. to allow enzymatic hydrolysis. The enzymatic reaction was subsequently terminated by heating to 95° C. for 5 min. After centrifugation (Heraeus Biofuge B, 3 min) the supernatant was subjected to HPLC.
(§7) For separating the remaining substrate from the cleavage products, a reversed phase HPLC technique with a CC 125/4 Nucleosil 300/5 C18 RP column and a CC 8/4 Nucleosil 100/5 C18 precolumn (Macherey-Nagel, Duren, Germany) was used. 60 μl of the reaction samples were injected into the HPLC and the column was eluted at a flow rate of 1 ml/min with the following gradient: […]
(§8) All peptides were detected by absorbance at 214 nm (UV spectroscopy).
(§9) Basis of the calculation of % inhibition is the peak area of the undegraded peptide (VIP or CNP) for an inhibitor containing sample X in comparison to samples containing only peptide (blank) or peptide and enzyme without inhibitor (control) according to the following equation: % inhib=100*(X−control)/(blank−control)
(§10) All samples were run in duplicate and mean values were used. A solvent control (0.1% DMSO) was added to each assay run.

In assay [2] the target is T2, NEP (prepared from pig kidney cortex) (Sus scrofa, UniProt A0A4X1SQE6). Kind of assay: Inhibition of enzymatic breakdown of CNP and VIP by NEP (in vitro enzymatic assay, HPLC). The following applies: 15 min preincubation, 60 min at 37° C. The format is biochemical. The method, then: as §1, §2, §3, §4, §5, §6, §7, §8, §9, §10
A further assay concerns human corpus cavernosum. Kind of assay: Big-ET-induced contraction of human cavernosal strips in vitro. The following applies: compounds at 10 μM, 20 min incubation; big-ET-1 10^−8 M; mean of n corpus cavernosum samples. It is filed as cell-based. On the procedure:
2. Influence of Test Compounds on Big-ET-Induced Contraction of Human Cavernosal Strips In Vitro
Human erectile tissues were obtained from the corpus cavernosum of 9 patients undergoing surgery for implantation of penile prosthesis as treatment of erectile dysfunction or penile congenital curvature. After surgery, the tissue samples were transported and stored at 4° C. in RPMI-1640 medium containing HEPES (23.8 mM), penicillin (100 IU/ml) and streptomycin (0.1 mg/ml) until use (within 24 hours). Eight sections of 4×2×2 mm were excised from the corpus cavernosum of each donor for each experiment. Cavernosal strips were suspended in 5 ml organ chambers filled with Krebs-HEPES buffer. Organ chambers were maintained at 37° C. and continuously bubbled with 95% O2 and 5% CO2 to maintain a pH at 7.4. The cavernosal strips were connected to force transducers for isometric tension recording (Pioden controls Ltd, UK), and an initial tension of 1 g was applied. Following amplification, the tension changes were digitalized via a Mac Lab™/8 using Chart software (AD Instruments Ltd). The tissue preparation were allowed to equilibrate for 90 minutes, while being washed periodically (every 15 minutes) with fresh Krebs-HEPES buffer. When a stable resting tension was attained, the strips were set to at least 500 mg of basal tension. Following the equilibration period, the erectile tissues were primed with KCl 80 mM during 10 min. Once this priming period was achieved, the strips were washed by fresh Krebs-HEPES solution and allowed to re-equilibrate for 30 minutes at 500 mg of tension.
Once the strips were stabilized after the priming period, they were incubated with one of the following compounds (all at 10 μM, unless indicated otherwise) during 20 min: compound of Formula IV, compound of Formula V, SM-19712 (a selective and potent endothelin converting enzyme-1 inhibitor), DL-thiorphan (a selective and potent NEP inhibitor), and the combination of SM-19712, 10 μM and DL-thiorphan, and the common vehicle (phosphate buffer).
The strips were then exposed to the half-maximally effective concentration of big-ET-1 (10^−8 M) determined in the preliminary experiments until a stable response was obtained.
Contractile responses were expressed as absolute change in maximal developed tension (in mg). To reduce the potential heterogeneity of responses between strips, the contraction to big-ET-1 was normalized by the contractile responses to KCl 80 mM obtained during the priming period.
The results are from duplicate or triplicate determinations from a single corpus cavernosum sample were averaged and values are expressed as percentage of the contractile responses induced by 80 mM of KCl, as mean […]SEM, for n corpus cavernosum samples.

The target in assay [3] is T1, hSEP (His6-tagged hSEP ectodomain). As to the kind of experiment: Activity assay: breakdown of VIP and CNP by hSEP. It is filed as biochemical. As to conditions: 120 min at 37° C., no inhibitor. On the procedure:
as §3, §4
(§11) 80 μl of assay buffer, 10 μl of enzyme working solution (NEP or hSEP) and 10 μl of peptide stock solution (VIP or CNP) were mixed in an Eppendorf vial and incubated for 120 min. at 37° C. The enzymatic reaction was subsequently terminated by heating to 95° C. for 5 min. […]
as §8
(§12) The percentage (=%) of hydrolysis was calculated on the basis of the peak area of the undegraded peptide for an enzyme containing sample Y in correlation to a sample containing the same concentration of peptide without enzyme (blank) by the following equation: % hydrolysis=100*(blank−Y) […]

In assay [4] the target is T2, NEP (prepared from pig kidney cortex). As to the kind of experiment: Activity assay: breakdown of VIP and CNP by NEP. The format is biochemical. The following applies: 120 min at 37° C., no inhibitor. The method, then:
as §3, §4, §11, §8, §12

In a further assay the test system is patients with ED. As to conditions: intracavernosal injection, combined with the α-adrenoceptor antagonist phentolamine; cited from earlier work.
Setting [5] is: substrate CNP (32-53), read-out: inhibition of breakdown of CNP by hSEP IC50.
[6] abbreviates: substrate VIP, read-out: inhibition of breakdown of VIP by hSEP IC50.
[7] abbreviates: inhibition of breakdown of CNP by NEP IC50, substrate CNP (32-53).
Where [8] appears, read: inhibition of breakdown of VIP by NEP IC50, substrate VIP.
Where [9] appears, read: substrate CNP (32-53), read-out: inhibition of breakdown of CNP by NEP IC50.
[10] abbreviates: substrate VIP, read-out: inhibition of breakdown of VIP by NEP IC50.

Like-named read-outs stand apart in the source and are kept apart here. Some results are limits rather than exact numbers.

A word on the IC50: it is the point on the concentration scale where inhibition reaches its midpoint.

T2 sequence (A0A4X1SQE6 entry or part of it): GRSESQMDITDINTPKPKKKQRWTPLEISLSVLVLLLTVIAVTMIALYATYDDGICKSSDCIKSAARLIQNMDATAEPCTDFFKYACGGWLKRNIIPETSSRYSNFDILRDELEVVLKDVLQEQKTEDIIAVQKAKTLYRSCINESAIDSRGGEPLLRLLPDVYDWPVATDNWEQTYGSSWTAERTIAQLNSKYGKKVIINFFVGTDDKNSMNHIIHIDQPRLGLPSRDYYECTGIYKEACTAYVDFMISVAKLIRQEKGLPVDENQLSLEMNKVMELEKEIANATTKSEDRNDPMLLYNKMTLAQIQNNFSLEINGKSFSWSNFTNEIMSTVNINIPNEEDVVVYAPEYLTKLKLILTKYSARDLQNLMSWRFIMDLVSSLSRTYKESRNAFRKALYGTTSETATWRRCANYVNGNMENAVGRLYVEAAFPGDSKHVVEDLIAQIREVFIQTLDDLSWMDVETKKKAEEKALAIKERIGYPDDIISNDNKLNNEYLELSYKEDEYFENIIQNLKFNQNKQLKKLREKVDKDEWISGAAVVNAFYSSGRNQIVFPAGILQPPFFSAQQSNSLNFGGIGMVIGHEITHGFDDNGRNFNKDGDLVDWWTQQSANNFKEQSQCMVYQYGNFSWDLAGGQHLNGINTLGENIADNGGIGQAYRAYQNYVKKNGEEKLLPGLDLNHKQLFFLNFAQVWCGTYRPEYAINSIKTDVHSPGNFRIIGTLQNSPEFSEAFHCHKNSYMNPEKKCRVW

Turning to `O=C(O)CNC(=O)C(CS)Cc1ccccc1` (racemic) [thiorphan, reference compound], the IC50 in assay [1] (setting [5]) was greater than 1000 nM; in assay [1] (setting [6]), greater than 1000 nM; in assay [2] (setting [7]), 8.4 nM; in assay [2] (setting [8]), 6.4 nM. In the assay on human corpus cavernosum, the “Maximal big-ET-induced contraction” value is on record as 91.57 percentage of the contractile responses induced by 80 mM of KCl.

Regarding `O=C(O)CN1C(=O)C(NC(=O)C2(CC(CCc3ccccc3)C(=O)O)CCCC2)CCc2ccccc21` (stereo not shown) [Cpd. of Formula IV, 2-[1-(1-carboxymethyl-2-oxo-2,3,4,5-tetrahydro-1H-benzo[b]azepin-3-ylcarbamoyl)-cyclopentylmethyl]-4-phenyl-butyric acid], in the assay on human corpus cavernosum, the “Maximal big-ET-induced contraction” value was 32.80 percentage of the contractile responses induced by 80 mM of KCl.

Turning to `Cc1nn(-c2ccccc2)c(NC(=O)NS(=O)(=O)c2ccc(Cl)cc2)c1C#N` [SM-19712, reference compound], in the assay with human corpus cavernosum, the “Maximal big-ET-induced contraction” value is 85.10 percentage of the contractile responses induced by 80 mM of KCl.

Regarding `CCOP(=O)(CC1(C(=O)N[C@H]2CCc3ccccc3N(CC(=O)OC(C)(C)C)C2=O)CCCC1)OCc1ccccc1` (stereo partly drawn) [compound 2, (3S)-(3-{[1-(Benzyloxy-ethoxy-phosphorylmethyl)-cyclopentanecarbonyl]-amino}-2-oxo-2,3,4,5-tetrahydro-benzo[b]azepin-1-yl)-acetic acid tert-butyl ester], the IC50 turned out to be 2.8 nM in assay [1] (setting [5]), 4 nM in assay [1] (setting [6]), 2.3 nM in assay [2] (setting [7]) and 1.6 nM in assay [2] (setting [8]).

`CCOC(=O)C(CCc1ccccc1)CC1(C(=O)NC2CCc3ccccc3N(CC(=O)O)C2=O)CCCC1` (stereo not shown) [compound of Formula II, 2-[1-(1-carboxymethyl-2-oxo-2,3,4,5-tetrahydro-1H-benzo[b]azepin-3-ylcarbamoyl)-cyclopentylmethyl]-4-phenyl-butyric acid ethyl ester]: the half-inhibitory concentration (IC50) in assay [1] (setting [5]) amounted to 0.7 nM; in assay [1] (setting [6]), 3.5 nM; in assay [2] (setting [9]), 7.5 nM; in assay [2] (setting [10]), 3.3 nM.

Regarding `CCOC(=O)[C@H](CCc1cccc2ccccc12)CC1(C(=O)N[C@H]2CCc3ccccc3N(CC(=O)O)C2=O)CCCC1` [compound of Formula III, {(3S)-3-[({1-[(2R)-2-(ethoxycarbonyl)-4-(1-naphthyl)butyl]cyclopentyl}carbonyl)amino]-2-oxo-2,3,4,5-tetrahydro-1H-1-benzazepin-1-yl}acetic acid], the IC50 is 2.2 nM in assay [1] (setting [5]), 2.9 nM in assay [1] (setting [6]), 6.6 nM in assay [2] (setting [9]) and 4.2 nM in assay [2] (setting [10]).

In the case of `O=C(O)CN1C(=O)C(NC(=O)C2(CC(CCc3cccc4ccccc34)C(=O)O)CCCC2)CCc2ccccc21` (stereo not shown) [cpd. of Formula V, 2-[1-(1-carboxymethyl-2-oxo-2,3,4,5-tetrahydro-1H-benzo[b]azepin-3-ylcarbamoyl)-cyclopentylmethyl]-4-naphthalen-1-yl-butyric acid], in the assay on human corpus cavernosum, the “Maximal big-ET-induced contraction” value is recorded as 49.60 percentage of the contractile responses induced by 80 mM of KCl.

For “CNP: C-type natriuretic peptide, substrate CNP (32-53), supplier Bachem”, the “degradation at t = 2 h by hSEP” value in assay [3] is recorded as 46%. Also, the “degradation at t = 2 h by NEP” value in assay [4] is 39%.

Turning to “VIP: vasoactive intestinal peptide, substrate, supplier Bachem”, in assay [3], the “degradation at t = 2 h by hSEP” value came out at 36%. Also, the “degradation at t = 2 h by NEP” value in assay [4] is listed as 28%. In the assay with patients with ED, the “response rate (erections sufficient for sexual intercourse)” value is on record as 67%.

These data come from patent US20050267072A1, “Pharmaceutical compositions containing dually acting inhibitors of neutral endopeptidase for the treatment of sexual dysfunction” (Solvay Pharmaceuticals GmbH, priority 2004, published 2005).
